Measured values from patent US20230121313A1 (priority 2019, published 2023).

Test system: patients with treatment-resistant depression (TRD)
Assay: Adverse events, phase 2 dose-response study in TRD
Type: in vivo, human
Experimental: Adverse events were monitored throughout the study. Other safety assessments (i.e., laboratory tests, vital signs, physical examination) were performed at pre-specified time points. Vital signs, the Clinician Administered Dissociative States Scale (CADSS; Bremner, “Measurement of dissociative states with the clinician-administered dissociative states scale (CADSS)”, J. Traumatic Stress, 1998, 11(1):125-136), and the 4-item positive symptom subscale from the Brief Psychiatric Rating Scale (BPRS; Overall, “The Brief Psychiatric Rating Scale. Psychological Reports”, 1962, 10:799-812) were assessed pre-dose, at 40 minutes, and 2 hours post-dose.
Safety data were analyzed in Period 1, Period 2, double-blind, and open-label data sets, for all subjects receiving at least 1 dose of study medication.

[1] = double-blind, esketamine 84 mg, N = 17
[2] = double-blind, esketamine Total, N = 56

Structure (SMILES): CN[C@]1(c2ccccc2Cl)CCCCC1=O [esketamine, (S)-2-(2-chlorophenyl)-2-(methylamino)cyclohexanone]
- Feeling abnormal, % of participants [1]: (6) %
- Feeling abnormal, number of participants [1]: 1
- Headache, % of participants [1]: (18) %
- Headache, number of participants [1]: 3
- Hypersomnia, number of participants [1]: 0
- Hypertension, % of participants [1]: (6) %
- Hypertension, number of participants [1]: 1
- Hypoesthesia oral, % of participants [1]: (12) %
- Hypoesthesia oral, number of participants [1]: 2
- Insomnia, number of participants [1]: 0
- Nasal discomfort, % of participants [1]: (6) %
- Nasal discomfort, number of participants [1]: 1
- Nausea, % of participants [1]: (24) %
- Nausea, number of participants [1]: 4
- Oropharyngeal pain, % of participants [1]: (12) %
- Oropharyngeal pain, number of participants [1]: 2
- Polyuria, number of participants [1]: 0
- Sedation, % of participants [1]: (6) %
- Sedation, number of participants [1]: 1
- Throat irritation, % of participants [1]: (12) %
- Throat irritation, number of participants [1]: 2
- Total with events, % of participants [1]: (88) %
- Total with events, number of participants [1]: 15
- Tunnel vision, % of participants [1]: (12) %
- Tunnel vision, number of participants [1]: 2
- Vertigo, % of participants [1]: (6) %
- Vertigo, number of participants [1]: 1
- Vision blurred, % of participants [1]: (12) %
- Vision blurred, number of participants [1]: 2
- Dissociation, % of participants [2]: (20) %
- Dissociation, number of participants [2]: 11
- Dissociative disorder, % of participants [2]: (13) %
- Dissociative disorder, number of participants [2]: 7
- Dizziness, % of participants [2]: (36) %
- Dizziness, number of participants [2]: 20
- Dysgeusia, % of participants [2]: (18) %
- Dysgeusia, number of participants [2]: 10
- Feeling abnormal, % of participants [2]: (7) %
- Feeling abnormal, number of participants [2]: 4
- Headache, % of participants [2]: (21) %
- Headache, number of participants [2]: 12
- Hypersomnia, % of participants [2]: (4) %
- Hypersomnia, number of participants [2]: 2
- Hypertension, % of participants [2]: (5) %
- Hypertension, number of participants [2]: 3
- Hypoesthesia oral, % of participants [2]: (13) %
- Hypoesthesia oral, number of participants [2]: 7
- Insomnia, % of participants [2]: (4) %
- Insomnia, number of participants [2]: 2
- Nasal discomfort, % of participants [2]: (5) %
- Nasal discomfort, number of participants [2]: 3
- Nausea, % of participants [2]: (18) %
- Nausea, number of participants [2]: 10
- Oropharyngeal pain, % of participants [2]: (5) %
- Oropharyngeal pain, number of participants [2]: 3
- Polyuria, % of participants [2]: (4) %
- Polyuria, number of participants [2]: 2
- Sedation, % of participants [2]: (7) %
- Sedation, number of participants [2]: 4
- Throat irritation, % of participants [2]: (5) %
- Throat irritation, number of participants [2]: 3
- Total with events, % of participants [2]: (75) %
- Total with events, number of participants [2]: 42
- Tunnel vision, % of participants [2]: (4) %
- Tunnel vision, number of participants [2]: 2
- Vertigo, % of participants [2]: (7) %
- Vertigo, number of participants [2]: 4
- Vision blurred, % of participants [2]: (4) %
- Vision blurred, number of participants [2]: 2
- Participants with adverse events leading to discontinuation of study drug (phase 2, double-blind phase): 5%
- Adverse event dizziness, % of participants (phase 2, open-label phase): 38.6%
- Adverse event dysgeusia, % of participants (phase 2, open-label phase): 22.8%
- Adverse event headache, % of participants (phase 2, open-label phase): 14.0%
- Adverse event nausea, % of participants (phase 2, open-label phase): 15.8%
- Adverse event sedation, % of participants (phase 2, open-label phase): 10.5%
- Participants reporting transient dissociative symptoms (phase 2, open-label phase): 24.6%
- Participants with adverse events leading to discontinuation of study drug (phase 2, open-label phase): 2%
